Tests used:
[1] = tested on: Human Simpson-Golabi-Behmel syndrome (SGBS) preadipocytes; assay: Brown cell differentiation of SGBS preadipocytes, high content imaging with anti-UCP1 and LipidTox staining; format: cell-based; conditions: concentration not given; for % Brown (adipocytes): day 11, LipidTox and UCP1 positive; for % White (adipocytes): day 11, LipidTox positive, below UCP1 threshold; for UCP1 fold: day 11, UCP1 staining
Protocol: OF Media included 1% Anti-Anti, […] biotin, […] panthotenate, and DMEM:F12 (1:1) media. Growth media included OF Media and 10% Fetal Bovine Serum. Differentiation induction media included OF Media, 10 μg/mL Insulin, 0.5 mM IBMX, and 1 μM Dexamethasone. The maintenance media included OF media and 10 μg/mL Insulin.
Human Simpson-Golabi-Behmel syndrome (SGBS) preadipocyteswere cultured in T225 flasks containing Growth Media. Upon passaging, cells were trypsinized, collected, spun down at 1250 g for 5 minutes at 20° C. to pellet. Cells were then resuspended in growth media before seeding cells at optimal density to maintain 75-80% confluency before passaging every 3-4 days.
Compounds at varying concentrations (starting at 20 uM with 1:3 dilution) were spotted onto 384-well black clear bottom plates (Greiner). The negative control consisted of DMSO while positive controls contained 2 uM of Rosiglitazone (Cayman). 50 μL of SGBS cells in induction were seeded directly on top of compound at a concentration of 1.1×10^5 cells/mL (˜5500 cells/well). After 4 days of induction, media was changed to 50 μL of maintenance media. Every 2-4 days after, media was changed again with 50 μL maintenance media until day 11.
After 11 days of differentiation, cells were fixed with 10 μL of 32% Paraformaldehyde for 10 minutes, followed by 10 μL of 7% Triton X-100 for another 10 minutes. Media was then aspirated down to 5 μL, 25 μL of Blocking Buffer 1 (2% BSA and 2.5% goat serum) was added, and plates were incubated for 1 hour. Plates were then aspirated down to 5 μL and 25 μL of primary antibody was added for 16 hour incubation. Primary antibody containing UCP1 (Sigma; Rabbit; 1:100) was diluted in Blocking Buffer 2 (2% BSA).
The next day, plates were washed 3 times with 1× PBS and 25 μL of secondary antibody were added. Secondary antibody containing Hoechst (1:6000), Alex Fluor 647 goat Anti-Rabbit (1:1000), and HCS LipidTOX Green Neutral Lipid Stain (Life Technologies; 1:800) were diluted in Blocking Buffer 2 (2% BSA). After 1 hour of incubation at room temperature, plates were washed 3 times with 1× PBS and left in 50 μL of PBS. Plates were then sealed and imaged.
Plates were imaged using CellInsight CX5 High Content Screening (HCS) Platform. Total cell number was detected using Hoechstand images were used to quantify total adipocytes (met defined threshold of lipidtox staining intensity).

SGBS preadipocytes = assay: Brown adipocyte differentiation of SGBS preadipocytes with or without exogenous LPA; format: cell-based, human; conditions: day 11 SGBS adipocytes, compound during days 3-4 of induction, 10 μM LPA during days 1-4; FIG. 6A
Protocol: SGBS preadipocytes were plated in 384 plates as previously described but using induction media with or without the addition of 10 μM lysophosphatidic acid (LPA) for the first 2 days. On day 3, cells were treated with 10 μL of 6× concentration of compound 19 (final concentration was a 1:3 serial dilution starting at 20 μM) again with or without the addition of LPA. On day 5, media was changed to maintenance media until day 11. Staining and analysis of brown adipocytes based on UCP1 and lipid performed as described previously.

Row | SMILES | % Brown (adipocytes) ([1]; 1st of 3 sub-columns) [%] | % Brown (adipocytes) ([1]; 2nd of 3 sub-columns) [%] | % Brown (adipocytes) ([1]; 3rd of 3 sub-columns) [%] | % White (adipocytes) ([1]; 1st of 3 sub-columns) [%] | % White (adipocytes) ([1]; 2nd of 3 sub-columns) [%] | % White (adipocytes) ([1]; 3rd of 3 sub-columns) [%] | UCP1 fold ([1]; 1st of 3 sub-columns) [x] | UCP1 fold ([1]; 2nd of 3 sub-columns) [x] | UCP1 fold ([1]; 3rd of 3 sub-columns) [x] | induction of brown adipocyte differentiation in the presence of exogenous LPA (SGBS preadipocytes)
1 | Cc1ccc(NS(=O)(=O)c2ccc(-c3c(C)noc3C)cc2)cc1Cl [Compound 11] | 18 | 22 | 24 | 4 | 6 | 11 | 1.7 | 1.8 | 1.7 | 
2 | Cc1ccc(CNC(=O)C2CCN(S(=O)(=O)c3cc(-c4noc(C5CC5)n4)sc3C)CC2)o1 [Compound 1] | 15 | 27 | 30 | 6 | 3 | 4 | 1.2 | 2.6 | 2.7 | 
3 | Cc1sc(-c2noc(C(C)C)n2)cc1S(=O)(=O)N1CCC(C(=O)NCc2cccs2)CC1 [Compound 5] | 18 | 22 | 28 | 3 | 7 | 7 | 1.8 | 1.8 | 2.2 | 
4 | COC(=O)c1ccc(NS(=O)(=O)c2ccc(-c3c(C)noc3C)cc2)cc1 [Compound 10] | 17 | 21 | 29 | 6 | 8 | 10 | 1.5 | 1.5 | 2.0 | 
5 | Cc1ccc(C)c(-c2csc(Nc3ccc(S(=O)(=O)Nc4cc(C)on4)cc3)n2)c1 [Compound 9] | 18 | 21 | 31 | 5 | 6 | 6 | 1.5 | 1.9 | 2.7 | 
6 | Cc1nn(-c2ccccc2)c(C)c1S(=O)(=O)N1CCC(C(=O)NCCc2cccs2)CC1 [Compound 3] | 20 | 28 | 30 | 10 | 8 | 5 | 1.6 | 2.1 | 2.9 | 
7 | Cc1sc(-c2noc(C(C)C)n2)cc1S(=O)(=O)N1CCC(C(=O)N(C)Cc2ccco2)CC1 [Compound 6] | 14 | 23 | 29 | 6 | 6 | 5 | 1.2 | 1.7 | 2.4 | 
8 | Cc1sc(-c2noc(C3CCC3)n2)cc1S(=O)(=O)N1CCC(C(=O)NCc2ccco2)CC1 [Compound 4] | 17 | 22 | 30 | 5 | 7 | 5 | 1.5 | 1.6 | 2.6 | 
9 | COC(=O)CCSCc1ccc(-c2onc(C)c2NC(=O)OC(C)c2ccccc2Cl)cc1 (stereo not shown) [Compound 19] |  |  |  |  |  |  |  |  |  | attenuated induction of brown adipocyte differentiation
10 | Cc1nc(-c2cc(S(=O)(=O)N3CCC(C(=O)NCCc4cccs4)CC3)c(C)s2)no1 [Compound 2] | 29 | 34 | 34 | 9 | 8 | 7 | 2.2 | 2.8 | 2.9 | 

From patent US20170042915A1, “LPA RECEPTOR MODULATORS FOR BROWN FAT DIFFERENTIATION” (The California Institute for Biomedical Research, priority 2015, published 2017)
